Measured values as given in the NIST ThermoML archive (doi:10.1016/j.jct.2011.10.014).
“And” between values parts separate entries of the source, which are not always exact repeats. Equal entries are not always repeated.

Assay: molar heat capacity at constant pressure
Settings: 101.33 kPa, Crystal, Vacuum adiabatic calorimetry

O=C([O-])[O-].[Pb+2] [lead(II) carbonate]
Settings | molar heat capacity at constant pressure
229.94 K | 77.92 J/K/mol
230 K | 77.94 J/K/mol
233.13 K | 78.35 J/K/mol
236.26 K | 78.83 J/K/mol
239.37 K | 79.24 J/K/mol
240 K | 79.27 J/K/mol
242.47 K | 79.61 J/K/mol
245.56 K | 79.93 J/K/mol
247.36 K | 80.25 J/K/mol
247.44 K | 80.03 J/K/mol
248.53 K | 80.25 J/K/mol
248.62 K | 80.46 J/K/mol
249.63 K | 80.36 J/K/mol
250 K | 80.62 J/K/mol
250.32 K | 80.37 J/K/mol
250.72 K | 80.4 J/K/mol
251.68 K | 80.91 J/K/mol
251.81 K | 80.67 J/K/mol
252.9 K | 80.66 J/K/mol
253.25 K | 80.99 J/K/mol
253.98 K | 80.8 J/K/mol
254.73 K | 81.2 J/K/mol
255.06 K | 81.13 J/K/mol
255.71 K | 81.1 J/K/mol
256.15 K | 81.11 J/K/mol
256.2 K | 81.29 J/K/mol
256.35 K | 81.17 J/K/mol
257 K | 81.19 J/K/mol
257.23 K | 81.2 J/K/mol
257.66 K | 81.19 J/K/mol
257.75 K | 81.55 J/K/mol
258.31 K | 81.42 J/K/mol
258.32 K | 81.33 J/K/mol
258.97 K | 81.78 J/K/mol
259.12 K | 81.62 J/K/mol
259.4 K | 81.47 J/K/mol
259.66 K | 81.57 J/K/mol
260 K | 81.98 J/K/mol
260.33 K | 81.49 J/K/mol
260.47 K | 81.78 J/K/mol
260.76 K | 82.18 J/K/mol
260.93 K | 82.3 J/K/mol
261 K | 81.89 J/K/mol
261.55 K | 81.78 J/K/mol
261.69 K | 82.09 J/K/mol
262.03 K | 82.18 J/K/mol
262.39 K | 82.04 J/K/mol
262.62 K | 82.88 J/K/mol
262.63 K | 81.92 J/K/mol
263.17 K | 81.79 J/K/mol
263.27 K | 82.56 J/K/mol
263.7 K | 82.23 J/K/mol
263.78 K | 82.71 J/K/mol
263.85 K | 82.12 J/K/mol
263.9 K | 82.69 J/K/mol
264.53 K | 82.15 J/K/mol
264.54 K | 82.73 J/K/mol
264.79 K | 82.47 J/K/mol
264.95 K | 82.64 J/K/mol
265.18 K | 82.86 J/K/mol
265.2 K | 82.17 J/K/mol
265.82 K | 82.91 J/K/mol
265.86 K | 82.45 J/K/mol
265.88 K | 82.3 J/K/mol
266.47 K | 83.02 J/K/mol
266.56 K | 82.66 J/K/mol
266.78 K | 83.22 J/K/mol
266.94 K | 82.58 J/K/mol
267.12 K | 83.34 J/K/mol
267.27 K | 82.4 J/K/mol
267.77 K | 83.48 J/K/mol
267.85 K | 83 J/K/mol
267.95 K | 82.62 J/K/mol
268.01 K | 82.76 J/K/mol
268.42 K | 83.69 J/K/mol
268.63 K | 82.71 J/K/mol
269.07 K | 83.96 J/K/mol and 83 J/K/mol
269.31 K | 82.9 J/K/mol
269.73 K | 83.98 J/K/mol
269.75 K | 84.22 J/K/mol
269.99 K | 83.23 J/K/mol
270 K | 83.33 J/K/mol
270.14 K | 83.5 J/K/mol
270.38 K | 84.12 J/K/mol
270.68 K | 83.45 J/K/mol
270.74 K | 83.86 J/K/mol
271.04 K | 84.03 J/K/mol
271.2 K | 83.78 J/K/mol
271.36 K | 84.03 J/K/mol
271.7 K | 84.69 J/K/mol
272.07 K | 84.59 J/K/mol
272.26 K | 84.68 J/K/mol
272.43 K | 85.87 J/K/mol
272.67 K | 88.34 J/K/mol
272.77 K | 85.64 J/K/mol
273.1 K | 94.33 J/K/mol
273.15 K | 83.77 J/K/mol
273.3 K | 90.01 J/K/mol
273.43 K | 87.85 J/K/mol
273.58 K | 87.5 J/K/mol
273.76 K | 86.34 J/K/mol
274.21 K | 85.21 J/K/mol
274.36 K | 85.11 J/K/mol
274.43 K | 85.57 J/K/mol
274.92 K | 84.78 J/K/mol
275.09 K | 85.53 J/K/mol
275.43 K | 85.37 J/K/mol
275.61 K | 85.08 J/K/mol
275.62 K | 85.95 J/K/mol
275.76 K | 86.02 J/K/mol
276.3 K | 85.69 J/K/mol
276.44 K | 86.06 J/K/mol
276.47 K | 85.96 J/K/mol
276.49 K | 86.54 J/K/mol
276.98 K | 85.66 J/K/mol
277.13 K | 85.86 J/K/mol
277.55 K | 87.21 J/K/mol
277.67 K | 85.56 J/K/mol
277.8 K | 86.13 J/K/mol
278.35 K | 85.61 J/K/mol
278.49 K | 85.51 J/K/mol
278.57 K | 85.33 J/K/mol
278.64 K | 85.79 J/K/mol
279.04 K | 84.8 J/K/mol
279.16 K | 84.95 J/K/mol
279.34 K | 85.02 J/K/mol
279.74 K | 85.51 J/K/mol and 84.58 J/K/mol
279.84 K | 84.46 J/K/mol
280 K | 84.69 J/K/mol
280.48 K | 84.25 J/K/mol
280.51 K | 84.4 J/K/mol
280.87 K | 84.45 J/K/mol
281.17 K | 84.41 J/K/mol
281.18 K | 84.61 J/K/mol
281.61 K | 84.92 J/K/mol
281.86 K | 84.62 J/K/mol
281.87 K | 84.51 J/K/mol
282.22 K | 84.71 J/K/mol
282.54 K | 84.79 J/K/mol
283.3 K | 84.95 J/K/mol
283.98 K | 85.16 J/K/mol
284.55 K | 85.29 J/K/mol
284.68 K | 85.43 J/K/mol
285.39 K | 85.19 J/K/mol
286.07 K | 85.27 J/K/mol
286.75 K | 85.41 J/K/mol
287.43 K | 85.38 J/K/mol
287.49 K | 85.63 J/K/mol
288.12 K | 85.33 J/K/mol
288.8 K | 85.51 J/K/mol
289.49 K | 85.71 J/K/mol
290 K | 86.01 J/K/mol
290.41 K | 86 J/K/mol
293.33 K | 86.4 J/K/mol
296.23 K | 86.78 J/K/mol
298.15 K | 87.07 J/K/mol
299.12 K | 87.18 J/K/mol
300 K | 87.3 J/K/mol
302 K | 87.59 J/K/mol
304.88 K | 87.95 J/K/mol
307.76 K | 88.29 J/K/mol
310 K | 88.56 J/K/mol
310.62 K | 88.63 J/K/mol
313.49 K | 89 J/K/mol
316.35 K | 89.34 J/K/mol
320 K | 89.76 J/K/mol
